From patent US20090035440A1, “Compositions comprising polyphenol” (Conopco, Inc. d/b/a Unilever, priority 2007, published 2009)

Key:
[1] = 1H-NMR estimate of non-complexed (free) EGCG in mixed systems with complexing agent; format: binding; conditions: 0.6 wt % EGCG and 0.6 wt % CA in de-ionized water; pH 5.0 (WPI pH 6.5); 1H-NMR at 27° C.
Experimental: (§1) Stock solutions containing 1.2 wt % EGCG were prepared by adding the powder to de-ionized water (conductivity=18.2 MΩ.cm) and stirring at 40° C. […] Stock solutions of pectin, were prepared by dissolving powder in de-ionized water at 80° C. for 1 hour and then cooling to 25° C. After dissolving the material, the pH of all samples, except for the WPI, was adjusted to 5.0 using 0.01 HCl or 0.1 M NaOH. The WPI was used at a pH of 6.5 to avoid precipitation of the whey proteins. In all cases the maximum ionic strength would remain below 10 mM. After setting the pH, mixed systems were prepared by quickly adding a fixed weight of the stock EGCG-solution into the same weight of complexing agent (CA)-solution under continuous stirring. Thus the final samples contained 0.6 wt % EGCG and 0.6 wt % CA.
Proton-NMR measurements were carried out on 0.6 ml samples in 5 mm NMR tubes at 27° C. using a Bruker AV600 NMR spectrometer. Prior to measurement, 5% (w/w) of D2O was added to each sample. The spectra were acquired with presaturation of the water signal using the Bruker pulse program: noesygppr1d. A signal at ˜4.7 ppm was from residual water and was ignored for data analysis purposes. […] This calibration curve was used to estimate the amount of non-complexed (or “free”) EGCG in the samples.

[2] = Appearance of EGCG/complexing agent mixed systems (Example 1); format: physicochemical; conditions: 0.6 wt % EGCG and 0.6 wt % CA
Experimental: as §1

[3] = Dynamic light scattering particle size of EGCG/complexing agent mixed systems (Example 1); format: physicochemical; conditions: 0.6 wt % EGCG and 0.6 wt % CA; DLS at 25° C., undiluted; volume-averaged; one value per peak where more than one peak
Experimental: as §1
DLS measurements were performed within 4 hours after sample preparation using a Zetasizer Nano ZS instrument (Malvern Instruments, Malvern, UK). This instrument records intensity fluctuations of scattered light at a fixed angle from clear samples containing particles between 1 and 1000 nm in size. These fluctuations are converted into an autocorrelation function spanning time scales between picoseconds and seconds. The instrument software fits intensity- and volume-weighed size distributions to the recorded autocorrelations. Samples were measured without any dilution at 25° C. […]

Compound	Amount of EGCG free in solution (wt % of total EGCG) [1]	Appearance [2]	Average Particle Size (nm) [3] [nm]
O=C(O)[C@@H]1CCCN1 [L-proline]	100 wt % of total EGCG	Transparent	2
poly-L-proline	0 wt % of total EGCG	–	–
